Measurements: ChEMBL document CHEMBL1201862, “PubChem BioAssay data set” (2004)
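Exposure lasted 48 hours, with cells grown in 96-well plates and compounds tested at five concentrations. GI50 is the concentration that inhibits growth by half.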 Activity calls are given as the source filed them. Rule as the data show it: active = GI50 up to about 1.1 µM and inactive = higher. Where a SMILES comes first, the peptide text is derived from it. [ ]: non-standard residue; d: D form. The star is where a group is joined. Phe(4-NO2) = N[CH](Cc1ccc([N+](=O)[O-])cc1)C(=O)O; Boc = CC(C)(C)OC(=O)*; OtBu = CC(C)(C)O*

Tests used:
Assay in all cases: DTP human tumour cell line panel, 48 h
COLO 205 = system: COLO 205
A549 = system: A549
SK-MEL-28 = system: SK-MEL-28
RPMI-8226 = system: RPMI-8226
PC-3 = system: PC-3
SF-295 = system: SF-295
RXF 393 = system: RXF 393
LOX IMVI = system: LOX IMVI
IGROV-1 = system: IGROV-1
SK-MEL-2 = system: SK-MEL-2
SNB-75 = system: SNB-75
T47D = system: T47D
SK-MEL-5 = system: SK-MEL-5
BT-549 = system: BT-549
A498 = system: A498
MDA-MB-231 = system: MDA-MB-231
NCI-H226 = system: NCI-H226
MDA-N = system: MDA-N
Malme-3M = system: Malme-3M

Measured: GI50

Cc1ccnc(NC(=S)Nc2cccc(Cl)c2)c1
inactive: COLO 205 > 100 µM | A549 > 100 µM | SK-MEL-28 > 100 µM | RPMI-8226 > 100 µM | PC-3 > 100 µM | SF-295 > 100 µM | RXF 393 > 100 µM | LOX IMVI > 100 µM | IGROV-1 10.5 µM | SK-MEL-2 > 100 µM | SNB-75 23.1 µM | T47D > 100 µM | SK-MEL-5 > 100 µM | BT-549 > 100 µM | A498 > 100 µM

CC(=O)OC1CC2CCC1(C)C2(C)C (stereo not given)
inactive: COLO 205 > 100 µM | MDA-MB-231 > 100 µM | SK-MEL-28 > 100 µM | RPMI-8226 > 100 µM | NCI-H226 > 100 µM | PC-3 > 100 µM | SF-295 > 100 µM | RXF 393 > 100 µM | LOX IMVI > 100 µM | IGROV-1 > 100 µM | MDA-N > 100 µM | SK-MEL-2 > 100 µM | SNB-75 > 100 µM | T47D > 100 µM | A498 > 100 µM | Malme-3M > 100 µM

NC1=C(N2CCCCC2)C(=O)NC2=N/C(=C\c3ccccc3)C(=O)N21
inactive: COLO 205 > 100 µM | MDA-MB-231 > 100 µM | A549 > 100 µM | SK-MEL-28 > 100 µM | RPMI-8226 > 100 µM | NCI-H226 > 100 µM | SF-295 > 100 µM | RXF 393 > 100 µM | LOX IMVI > 100 µM | IGROV-1 > 100 µM | MDA-N > 100 µM | SNB-75 > 100 µM | T47D > 100 µM | SK-MEL-5 > 100 µM | A498 > 100 µM | Malme-3M > 100 µM

O=NC1C(Cl)C2CC1C1C(Br)C(Br)CC21 (stereo not given)
inactive: COLO 205 > 100 µM | MDA-MB-231 > 100 µM | A549 > 100 µM | SK-MEL-28 > 100 µM | RPMI-8226 20.8 µM | NCI-H226 > 100 µM | PC-3 > 100 µM | SF-295 > 100 µM | RXF 393 > 100 µM | LOX IMVI > 100 µM | IGROV-1 > 100 µM | SK-MEL-2 > 100 µM | SNB-75 > 100 µM | T47D > 100 µM | SK-MEL-5 > 100 µM | A498 > 100 µM | Malme-3M > 100 µM

C=CCOC(=O)Cn1cnc2c(N)ncnc21
inactive: COLO 205 > 100 µM | MDA-MB-231 > 100 µM | A549 > 100 µM | SK-MEL-28 > 100 µM | RPMI-8226 > 100 µM | NCI-H226 > 100 µM | PC-3 > 100 µM | SF-295 > 100 µM | LOX IMVI > 100 µM | IGROV-1 > 100 µM | MDA-N > 100 µM | SK-MEL-2 > 100 µM | SNB-75 > 100 µM | T47D > 100 µM | SK-MEL-5 > 100 µM | A498 > 100 µM | Malme-3M > 100 µM

CC(=O)NC(CCC(=O)OC(C)(C)C)C(=O)NC(CCC(=O)OC(C)(C)C)C(=O)NC(Cc1ccc([N+](=O)[O-])cc1)C(=O)NC(CCCCNC(=O)OC(C)(C)C)C(=O)NC(CCCCNC(=O)OC(C)(C)C)C(=O)NCC(=O)O (stereo not given) (Ac-E(OtBu)E(OtBu)[Phe(4-NO2)]K(Boc)K(Boc)G-OH; configuration not given here)
inactive: COLO 205 > 100 µM | MDA-MB-231 > 100 µM | A549 > 100 µM | SK-MEL-28 > 100 µM | RPMI-8226 > 100 µM | NCI-H226 > 100 µM | PC-3 > 100 µM | SF-295 > 100 µM | RXF 393 > 100 µM | LOX IMVI > 100 µM | IGROV-1 > 100 µM | MDA-N > 100 µM | SK-MEL-2 75.2 µM | SNB-75 > 100 µM | T47D > 100 µM | SK-MEL-5 7.35 µM | Malme-3M > 100 µM

C=C=C(C)[Si](C)(C)C
inactive: COLO 205 > 100 µM | MDA-MB-231 > 100 µM | A549 > 100 µM | SK-MEL-28 > 100 µM | RPMI-8226 > 100 µM | NCI-H226 > 100 µM | PC-3 > 100 µM | SF-295 > 100 µM | RXF 393 > 100 µM | LOX IMVI > 100 µM | IGROV-1 71.1 µM | MDA-N > 100 µM | SK-MEL-2 > 100 µM | SNB-75 96.2 µM | T47D > 100 µM | SK-MEL-5 > 100 µM | A498 > 100 µM | Malme-3M > 100 µM

COC(C)(C)[C@@H]1CCCN1C1=C(C)C(=O)OC1
inactive: COLO 205 > 100 µM | MDA-MB-231 > 100 µM | RPMI-8226 > 100 µM | PC-3 > 100 µM | SF-295 > 100 µM | RXF 393 > 100 µM | LOX IMVI > 100 µM | IGROV-1 > 100 µM | MDA-N > 100 µM | SK-MEL-2 > 100 µM | SNB-75 > 10 µM | T47D > 100 µM | SK-MEL-5 > 100 µM | Malme-3M > 100 µM

Cc1c/c(=N/NC(=O)c2ccncc2)n2nc(N)sc2n1
inactive: COLO 205 > 100 µM | MDA-MB-231 > 100 µM | A549 > 100 µM | SK-MEL-28 > 100 µM | RPMI-8226 > 100 µM | NCI-H226 > 100 µM | PC-3 > 100 µM | SF-295 > 100 µM | RXF 393 > 100 µM | LOX IMVI > 100 µM | IGROV-1 > 100 µM | SK-MEL-2 > 100 µM | SNB-75 40.2 µM | SK-MEL-5 > 100 µM | BT-549 > 100 µM | A498 > 100 µM

CNC1=Nc2ccccc2C(=S)N2CSC[C@@H]12
inactive: COLO 205 > 100 µM | MDA-MB-231 > 100 µM | A549 > 100 µM | SK-MEL-28 > 100 µM | RPMI-8226 > 100 µM | PC-3 > 100 µM | SF-295 > 100 µM | RXF 393 > 100 µM | SK-MEL-2 > 100 µM | T47D > 100 µM | SK-MEL-5 > 100 µM | A498 > 100 µM | Malme-3M > 100 µM

CCOC(=O)/C(C#N)=C/c1ccc(CO)o1
inactive: COLO 205 > 100 µM | MDA-MB-231 > 100 µM | A549 > 100 µM | SK-MEL-28 > 100 µM | RPMI-8226 > 100 µM | NCI-H226 > 100 µM | PC-3 > 100 µM | SF-295 > 100 µM | RXF 393 > 100 µM | LOX IMVI > 100 µM | IGROV-1 > 100 µM | MDA-N > 100 µM | SNB-75 > 100 µM | T47D > 100 µM | SK-MEL-5 > 100 µM | A498 > 100 µM | Malme-3M > 100 µM

Fc1cc(C2=Nn3c(COc4ccccc4Cl)nnc3S/C2=C\c2ccc(Cl)cc2)c(Cl)cc1Cl
inactive: MDA-MB-231 3.72 µM | SK-MEL-28 3.54 µM | RPMI-8226 3.08 µM | NCI-H226 20.6 µM | PC-3 12.3 µM | SF-295 4.28 µM | RXF 393 9.89 µM | LOX IMVI 3.92 µM | IGROV-1 3.8 µM | MDA-N 2.23 µM | SK-MEL-2 13.3 µM | T47D 13.6 µM | SK-MEL-5 3.96 µM | A498 14.2 µM
